Test results reported in US20200197461A1, “NOVEL CANNABIS SATIVA LINES AND EXTRACTS WITH ANTI-CANCER PROPERTIES” (Pathway RX Inc., priority 2018, published 2020).
Several values for one entry are separate records, joined by “and”; a condition that tells them apart may be missing. Identical values can stand only once.

System: HCC1806 breast cancer cells
Experiment: MTT proliferation assay on HCC1806 cells
Format: cell-based, human
Method: HCC 1806—Primary Acantholytic Squamous Cell Carcinoma
(Colorimetric assays using the tetrazolium salt thiazolyl blue, also termed MTT, after methyl-thiazolyl-tetrazolium)
Around 1500 cells are in placed in each well in 96 well plates, 10 extracts (tested 2 concentrations each, 0.007 mg/ml and 0.015 μg/μl) were added to separate wells. Untreated cells and DMSO-treated cells were used as controls in separate wells. Experiments were performed in triplicate. A total number of 9×10^4 cells are required at each concentration. The well plates were purchased from Sigma Aldrich.
Mix cells and medium nicely, add 150 μl per well, plate eight 96-well plates for each experiment.
Place 96-well plates in a 37° C. incubator with 5% CO2. After 24 hours, the medium was changed to the medium containing extracts.
The MTT assay was performed from Day 0 to Day 7 by adding 15 μl MTT labeling reagent into each well and incubated at 37° C. for 4 hours. Thereafter, 150 μl solubilization solution was added into each well and incubated overnight in the 37° C. incubator with 5% CO2.
3-(4,5-Dimethylthiazol-2-yl)-2,5-diphenyltetrazolium bromide assays were performed using the Cell Proliferation Kit I (Roche Diagnostics GmbH) as the manufacturer's instructions. The absorbance of the samples was measured at 595 nm using a microtiter plate reader (FLUOstar Omega, BMG LABTECH). The experiments were done in triplicate.

| SMILES | effective (active) concentration on HCC1806 cancer cells (pure cannabinoid) | effective concentration on HCC1806 cancer cells, converted (pure cannabinoid, conversion of 15 μM) [µg/µL] | effectiveness of pure cannabinoid on HCC1806 cancer cells (20 μM (0.0063 μg/μl)) |
| --- | --- | --- | --- |
| C=C(C)[C@@H]1CCC(C)=C[C@H]1c1c(O)cc(CCCCC)cc1O [CBD, cannabidiol] | 15 to 20 µM and 15 µM | 0.0047 |  |
| CCCCCc1cc(O)c2c(c1)OC(C)(C)[C@@H]1CCC(C)=C[C@@H]21 [THC, tetrahydrocannabinol] |  |  | only marginally and insignificantly effective |
